This is an account of results in the METLIN SMRT retention time set (Domingo-Almenara et al. 2019).

Structures are written as SMILES.

The data set is described as follows: gradient 5% acetonitrile 3 min, to 50% in 2 min, to 85% in 15 min, held 3 min, 100 µL/min. The conditions noted are these: column: Zorbax Extend-C18 2.1 x 50 mm; eluents: water / acetonitrile, 0.1% formic acid. Put shortly:
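Data were gathered over 3 months by HPLC coupled to a quadrupole time-of-flight mass spectrometer, operated in positive and negative ionization mode. Mixtures of ~100 pure standards ran on a Zorbax Extend-C18 column (2.1 × 50 mm, 1.8 μm) at 100 μL/min, with water and acetonitrile each containing 0.1% formic acid and dead and dwell volumes of 40 μL and 900 μL. Retention time was read from adduct peaks picked by computer and checked manually.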
The compound `Cc1ccc(-c2nc(Nc3cccc(Cl)c3)sc2C)cc1` returned an RP-LC retention time of 1320 s.

Turning to `CCCc1cc(N2CCN(C(=O)c3sccc3C)CC2)nc2nnc(C)n12`, the RP-LC retention time turned out to be 566 s.

Turning to `O=C1CN=C(c2ccc[nH]2)c2cc(Cl)ccc2N1`, the RP-LC retention time was found to be 650 s.

Take `COc1cc(NC(=O)Nc2nccn(-c3cc(C)cc(C)c3)c2=O)cc(OC)c1`: the RP-LC retention time was 913 s.

On to `Cc1nn(CC(=O)NCCc2ccco2)c(=O)c2c(C)n(-c3ccccc3)nc12`, for which the RP-LC retention time is 774 s.

The compound `O=S(=O)(c1cccn2c(SCc3ccncc3)nnc12)N1CCN(c2ccc(F)cc2)CC1` returned an RP-LC retention time of 663 s.

The compound `COC(=O)c1sccc1NC(=O)N1CCCn2nc(-c3ccncc3)cc2C1` registered an RP-LC retention time of 647 s.

For the compound `O=C(Nc1cccn2nc(C3CCC3)nc12)c1cccs1`, the RP-LC retention time came to 861 s.

As to `CN1C(=O)CCc2cc(NC(=O)Cc3cccs3)ccc21`, the RP-LC retention time amounted to 702 s.

With `CCCNC(=O)N1CCC2(CC1)Nc1cc(F)ccc1-n1cccc12`, the RP-LC retention time was found to be 888 s.

In turn, `Cn1ccc2cc(S(=O)(=O)N3CCCC(C(=O)NCCCN4CCCCCC4)C3)ccc21` (stereo not given) had an RP-LC retention time of 668 s.

In turn, `Cn1c(=O)sc2cc(S(=O)(=O)N3CCC(C(=O)NCCc4ccccc4)CC3)ccc21` registered an RP-LC retention time of 830 s.

Compound `O=C(C1=CN(c2ccc(Oc3ccccc3)cc2)c2ccccc2S1(=O)=O)N1CCOCC1` displayed an RP-LC retention time of 913 s.

`CCc1nc(-c2ccc(-c3noc(CNC(=O)c4ccco4)n3)cc2)cs1` showed an RP-LC retention time of 924 s.

In turn, `CC1CCN(c2ncc3c(n2)CCN(Cc2ccc(OC(C)C)cc2)C3)CC1` displayed an RP-LC retention time of 807 s.

For the compound `Cc1sc(NC(=O)c2ccc3c(c2)OCO3)nc1-c1ccc2c(c1)N(C)C(=O)CO2`, the RP-LC retention time came out at 823 s.

`Cc1ccc(S(=O)(=O)NC(C)c2nc(-c3ccc(-c4csc(C)n4)cc3)no2)cc1` (stereo not given) gave an RP-LC retention time of 1020 s.

In turn, `Cc1nc(C)c(C(=O)N2CCCn3cc(-c4ccccc4F)nc32)s1` gave an RP-LC retention time of 679 s.

For the compound `CC(NC(=O)c1ccccn1)C(=O)Nc1nc2ccccc2[nH]1` (stereo not given), the RP-LC retention time was determined as 608 s.

For the compound `CCc1csc(-c2ccc(N3CCN(C(=O)c4ccc(Cl)nc4)CC3)nc2)n1`, the RP-LC retention time came out at 832 s.

For the compound `CCc1noc(NC(C)=O)c1-c1ccc(C)c(S(=O)(=O)Nc2cc(Cl)ccc2C)c1`, the RP-LC retention time is 891 s.

As for `CCOc1ccc(CNC(=O)c2cc3c(=O)n(CC)c4ccccc4n3n2)cc1OC`, the RP-LC retention time was found to be 1180 s.

`CN1C(=O)Cc2ccccc2C1C(=O)NCc1cccc(F)c1` (stereo not given) showed an RP-LC retention time of 729 s.

Compound `CC(C)N1C(=O)C(C)(C(=O)Nc2ccccc2F)Oc2cccnc21` (stereo not given) showed an RP-LC retention time of 973 s.

In turn, `COc1ccccc1C(=O)NC1CCN(c2cc(-c3cccs3)[nH]n2)C1` (stereo not given) displayed an RP-LC retention time of 717 s.

Regarding `O=C(CCn1nnc2cc(-c3noc(CCC4CCCC4)n3)ccc21)N1CCCC1`, the RP-LC retention time came out at 1050 s.

Consider `O=c1n(CC2CC2)nc2n1CCN(S(=O)(=O)Cc1ccccc1)CC2`, for which the RP-LC retention time was determined as 741 s.

Compound `C=CCn1c(C)c(CC(=O)NC(C)CC)c(=O)n2nc(-c3ccc(C)cc3)nc12` (stereo not given) came in with an RP-LC retention time of 824 s.

In turn, `CN(CC(=O)N1CCN(Cc2ccccc2)CC1)S(=O)(=O)c1ccc2c(c1)CCCC(=O)N2` displayed an RP-LC retention time of 600 s.

`COc1cccc(-c2nc(-c3cn(-c4cccc(Cl)c4)nn3)no2)c1` registered an RP-LC retention time of 1140 s.

For the compound `Cc1ccc(-c2coc(-c3ccc(NC(=O)NCCc4ccccc4)cc3)n2)c(C)c1`, the RP-LC retention time is 1260 s.

`COc1ccc(-c2nnc(COc3cccc(NC(=O)c4cncc(Br)c4)c3)o2)cc1` had an RP-LC retention time of 914 s.

On to `O=C(COc1ccc(F)cc1)Nc1ccc2c(c1)CCC(=O)N2`, for which the RP-LC retention time amounted to 705 s.

In turn, `O=c1ccc(-c2ccc(F)cc2)nn1CCc1nc(-c2ccc(Cl)cc2)no1` showed an RP-LC retention time of 1060 s.

The compound `O=C1/C(=C/c2cccnc2)Oc2cc(OCc3ccc([N+](=O)[O-])cc3)ccc21` returned an RP-LC retention time of 838 s.

For the compound `CN1C(=O)CCC2(CNC(=O)c3cnccn3)CCC=C12` (stereo not given), the RP-LC retention time worked out at 644 s.

`O=C(NC1CC1)c1nc(C(=O)N2CCN(c3ccc(F)cc3)CC2)cs1` had an RP-LC retention time of 788 s.

`Cc1nc(Nc2ccc(F)cn2)sc1C(=O)N1CCC(C(N)=O)(N2CCCCC2)CC1`: the RP-LC retention time stood at 590 s.

`Cc1cc2nc(C(=O)Nc3ccc(C)c(C)c3)cc(C)n2n1`: the RP-LC retention time was 1090 s.

On to `CC1(C(=O)NCc2ccccc2)CCCN(C(=O)Nc2ccc(F)cc2)C1` (stereo not given), for which the RP-LC retention time is 588 s.

`COC(=O)c1cc(S(=O)(=O)N2CCCC2C(=O)Nc2ccc(F)cc2)cn1C` (stereo not given) yielded an RP-LC retention time of 830 s.

`Cc1nn(C)c(=O)c2cc(S(=O)(=O)NCCC3=CCCCC3)cn12` displayed an RP-LC retention time of 966 s.

The compound `CCN(CC)CCNC(=O)c1ccc2c(c1)N(S(C)(=O)=O)CC2` yielded an RP-LC retention time of 554 s.

With `Cc1ccc(C(=O)Nc2ccc3c(c2)Sc2ncccc2C(=O)N3C)cc1C`, the RP-LC retention time worked out at 876 s.

`CCCCN(C)C(=O)C1CCN(c2cncnc2N(C)C)CC1` had an RP-LC retention time of 611 s.

Turning to `O=C(NCCCN1CCCC1)c1ccc(-c2ccc(N3CCSCC3)nc2)cc1`, the RP-LC retention time is 574 s.

`CC(Oc1cccc(F)c1)C(=O)NCCOc1ccccc1` (stereo not given) displayed an RP-LC retention time of 857 s.

Take `COc1cccc(-c2nc(-c3ccc4c(c3)ncn4CCN3CCCC3)no2)c1`: the RP-LC retention time is 653 s.

Take `Cc1cc(C(=O)NCCCN2CCOCC2)nc2cc(-c3ccccn3)nn12`: the RP-LC retention time was 630 s.

Regarding `O=[N+]([O-])c1ccccc1S(=O)(=O)N1CCc2ccccc21`, the RP-LC retention time was 893 s.

`COCCN1C(=O)CC[C@]2(C(=O)NCc3ccccc3Cl)CCCC[C@@H]12`: the RP-LC retention time turned out to be 730 s.

Compound `Cc1cc(C)cc(NS(=O)(=O)c2ccc(-c3c(C)noc3C)cc2)c1` came in with an RP-LC retention time of 989 s.

As to `O=C(NCc1ccco1)c1c(-c2ccccc2)nnc2ccccc12`, the RP-LC retention time is 756 s.

With `CCCNC(=O)C1CCCN(c2ccc(SCC(=O)Nc3ccc(C)c(Cl)c3)nn2)C1` (stereo not given), the RP-LC retention time came out at 748 s.

Regarding `Cc1ccsc1CN1CCc2nc(N3CCN(c4ccccc4F)CC3)ncc2C1`, the RP-LC retention time was found to be 780 s.

Consider `Cc1nc(N2CCN(Cc3ccccc3)CC2)nc2c1C(=O)CC(c1ccc(Cl)cc1)C2` (stereo not given), for which the RP-LC retention time amounted to 825 s.

`CCCn1cc(CCNS(=O)(=O)c2ccc(F)cc2F)c2cccnc21` showed an RP-LC retention time of 848 s.

As for `CCc1noc(C2(NC(=O)COc3ccc(Cl)cc3)CCCCC2)n1`, the RP-LC retention time was 1040 s.

In turn, `Cc1cccc2sc(NC(=O)Cc3csc(Nc4ccc(Cl)cn4)n3)nc12` showed an RP-LC retention time of 1140 s.

The compound `CCOc1ccccc1-c1nc(-c2cn(-c3ccc(F)cc3)nn2)no1` returned an RP-LC retention time of 1090 s.
